# Results from US20240279202A1 (NURIX THERAPEUTICS, INC., priority 2021, published 2024).
# Target: T1, ITK (Mus musculus, UniProt Q03526)
# T1 construct: mice were sacrificed and splenocytes were isolated and used to prepare protein lysates; from tissue; host or cells: mouse splenocytes (spleen) after oral dosing
# T1 sequence (Q03526 1-625): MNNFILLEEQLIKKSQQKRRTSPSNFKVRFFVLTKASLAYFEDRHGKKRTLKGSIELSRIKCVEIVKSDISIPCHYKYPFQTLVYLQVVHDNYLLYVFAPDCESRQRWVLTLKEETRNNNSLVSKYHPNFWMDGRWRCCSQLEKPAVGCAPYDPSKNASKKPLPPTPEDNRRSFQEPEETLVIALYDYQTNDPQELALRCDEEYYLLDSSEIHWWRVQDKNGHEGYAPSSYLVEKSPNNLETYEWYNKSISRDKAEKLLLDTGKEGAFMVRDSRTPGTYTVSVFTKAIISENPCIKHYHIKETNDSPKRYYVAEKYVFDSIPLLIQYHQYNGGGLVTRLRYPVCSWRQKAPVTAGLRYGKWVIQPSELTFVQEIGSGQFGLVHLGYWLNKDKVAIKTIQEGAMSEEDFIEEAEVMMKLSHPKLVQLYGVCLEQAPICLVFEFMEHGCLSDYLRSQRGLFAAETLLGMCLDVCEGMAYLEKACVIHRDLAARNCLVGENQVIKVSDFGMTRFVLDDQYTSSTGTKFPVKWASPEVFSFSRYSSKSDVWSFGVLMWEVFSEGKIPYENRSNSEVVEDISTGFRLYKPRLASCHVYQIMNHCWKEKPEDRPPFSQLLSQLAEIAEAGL
# Assay: Mouse PD assay for ITK degradation (Western blot, splenocytes after oral administration)
# Assay type: in vivo
# Conditions: for ITK (%) 90 mpk PO, 6 h: percent ITK remaining in mouse splenocytes relative to vehicle
# Outline: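 Mice dosed orally, some compounds at 90 mg/kg; splenocytes harvested after 6 hours (some 24 hours). ITK measured by Western blot of equal-protein lysates, normalized to actin. Values are % ITK remaining relative to vehicle-control mean.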
"ITK (%) 90 mpk PO, 6 h","ITK degradation in vivo at 6 hours (FIG. 2) (mice, 90 mg/kg PO, splenocytes, Western blot, 6 hours)","ITK degradation in vivo at 6 hours (FIG. 3A, FIG. 4A) (mice, oral, splenocytes, Western blot, 6 hours)",SMILES
49.3%,–,–,"CN(C(=O)CCN1CCN(c2ccc3c(c2)C(=O)N(C2CCC(=O)NC2=O)C3=O)CC1)c1ccc2cc(-c3n[nH]c4c3CCC(C)(C)C4)[nH]c2c1 (stereo not drawn) [Compound 2, N-(2-(6,6-dimethyl-4,5,6,7-tetrahydro-1H-indazol-3-yl)-1H-indol-6-yl)-3-(4-(2-(2,6-dioxopiperidin-3-yl)-1,3-dioxoisoindolin-5-yl)piperazin-1-yl)-N-methylpropanamide]"
102%,–,–,"Cn1c(=O)n([C@H]2CCC(=O)NC2=O)c2cccc(N3CCC(CN4CCN(C(=O)c5ccc6cc(-c7n[nH]c8c7CCC(C)(C)C8)[nH]c6c5)CC4)CC3)c21 [Compound 46, (S)-3-(4-(4-((4-(2-(6,6-dimethyl-4,5,6,7-tetrahydro-1H-indazol-3-yl)-1H-indole-6-carbonyl)piperazin-1-yl)methyl)piperidin-1-yl)-3-methyl-2-oxo-2,3-dihydro-1H-benzo[d]imidazol-1-yl)piperidine-2,6-dione]"
153%,degraded ITK in vivo,–,"CN(C(=O)CCC1CCN(c2ccc3c(c2)C(=O)N(C2CCC(=O)NC2=O)C3=O)C1)c1ccc2cc(-c3n[nH]c4c3CCC(C)(C)C4)[nH]c2c1 (stereo not drawn) [Compound 1, N-(2-(6,6-dimethyl-4,5,6,7-tetrahydro-1H-indazol-3-yl)-1H-indol-6-yl)-3-(1-(2-(2,6-dioxopiperidin-3-yl)-1,3-dioxoisoindolin-5-yl)pyrrolidin-3-yl)-N-methylpropanamide]"
92%,–,–,"CN(C(=O)CC1CCN(CC2CCN(c3ccc(C4CCC(=O)NC4=O)cn3)CC2)CC1)c1ccc2cc(-c3n[nH]c4c3C[C@@H]3C(F)(F)[C@]3(C)C4)[nH]c2c1 (stereo partly drawn) [Compound 73, N-(2-((4aS,5aR)-5,5-difluoro-5a-methyl-1,4,4a,5,5a,6-hexahydrocyclopropa[f]indazol-3-yl)-1H-indol-6-yl)-2-(1-((1-(5-(2,6-dioxopiperidin-3-yl)pyridin-2-yl)piperidin-4-yl)methyl)piperidin-4-yl)-N-methylacetamide]"
140%,–,–,"CN(C(=O)CCC1CCN(c2ccc(C(=O)NC3CCC(=O)NC3=O)nc2)C1)c1ccc2cc(-c3n[nH]c4c3C[C@@H]3C(F)(F)[C@]3(C)C4)[nH]c2c1 (stereo partly drawn) [Compound 69, 5-(3-(3-((2-((4aS,5aR)-5,5-difluoro-5a-methyl-1,4,4a,5,5a,6-hexahydrocyclopropa[f]indazol-3-yl)-1H-indol-6-yl)(methyl)amino)-3-oxopropyl)pyrrolidin-1-yl)-N-(2,6-dioxopiperidin-3-yl)picolinamide]"
77%,–,degraded ITK in vivo,"Cn1c(=O)n(C2CCC(=O)NC2=O)c2cccc(N3CCC(CN4CCC5(CC4)CCN(c4ccc6cc(-c7n[nH]c8c7C[C@@H]7C(F)(F)[C@]7(C)C8)[nH]c6c4)C5=O)CC3)c21 (stereo partly drawn) [Compound 16, 3-(4-(4-((2-(2-((4aS,5aR)-5,5-difluoro-5a-methyl-1,4,4a,5,5a,6-hexahydrocyclopropa[f]indazol-3-yl)-1H-indol-6-yl)-1-oxo-2,8-diazaspiro[4.5]decan-8-yl)methyl)piperidin-1-yl)-3-methyl-2-oxo-2,3-dihydro-1H-benzo[d]imidazol-1-yl)piperidine-2,6-dione]"

SMILES,"ITK (%) 90 mpk PO, 6 h","ITK degradation in vivo at 6 hours (FIG. 2) (mice, 90 mg/kg PO, splenocytes, Western blot, 6 hours)","ITK degradation in vivo at 6 hours (FIG. 3A, FIG. 4A) (mice, oral, splenocytes, Western blot, 6 hours)"
"CN(c1ccc2cc(-c3n[nH]c4c3C[C@@H]3C(F)(F)[C@]3(C)C4)[nH]c2c1)C(=O)[C@H]1C[C@]2(CCN(c3ccc4c(c3)C(=O)N([C@H]3CCC(=O)NC3=O)C4=O)C2)C1 (racemic) [Compound 71b, (2s,4s)-N-[2-[(4aS,5aR)-5,5-difluoro-5a-methyl-1H,4H,4aH,6H-cyclopropa[f]indazol-3-yl]-1H-indol-6-yl]-6-[2-[(3RS)-2,6-dioxopiperidin-3-yl]-1,3-dioxoisoindol-5-yl]-N-methyl-6-azaspiro[3.4]octane-2-carboxamide]",30%,–,–
